Experimental data taken from patent publication US5216159A (priority 1991, dated 1993).
Structures can show the parent of a compound that is named as a salt.

Molecular target: GABAa receptor
Assay: GABAa receptor binding assay ([3H]-RO15-1788 [3H-Flumanzenil] displacement, rat cortical tissue)
Conditions: 0.5 nM 3H-RO15-1788, rat cortical tissue, 30 min at 4° C.
Procedure: The pharmaceutical utility of compounds of this invention are indicated by the following assay for GABAa receptor activity.
Assays are carried out as described in Thomas and Tallman (J. Bio. Chem. 156: 9838-9842, J. Neurosci. 3:433-440, 1983). Rat cortical tissue is dissected and homogenized in 25 volumes (w/v) of 0.05 M Tris HCl buffer (pH 7.4 at 4° C.). The tissue homogenate is centrifuged in the cold (4°) at 20,000×g for 20'. The supernatant is decanted and the pellet is rehomogenized in the same volume of buffer and again centrifuged at 20,000×g. The supernatant is decanted and the pellet is frozen at -20° C. overnight. The pellet is then thawed and rehomogenized in 25 volume (original wt/vol) of buffer and the procedure is carried out twice. The pellet is finally resuspended in 50 volumes (w/vol of 0.05 M Tris HCl buffer (pH 7.4 at […]).
Incubations contain 100 μl of tissue homogenate, 100 μl of radioligand 0.5 nM (^3 H-RO15-1788 [^3 H-Flumanzenil] specific activity 80 Ci/mmol), drug or blocker and buffer to a total volume of 500 μl. Incubations are carried for 30 min at 4° C. then are rapidly filtered through GFB filters to separate free and bound ligand. Filters are washed twice with fresh 0.05 M tris HCl buffer (pH 7.4 at 4° C.) and counted in a liquid scintillation counter. 1.0 μM diazepam is added to some tubes to determine nonspecific binding. Data are collected in triplicate determinations, averaged and % inhibition of total specific binding is calculated. Total Specific Binding=Total-Nonspecific. In some cases, the amounts of unlabeled drugs is varied and total displacement curves of binding are carried out. Data are converted to a form for the calculation of IC50 and Hill Coefficient (nH).

SMILES | IC50 [µM]
c1ccc(-c2ncc3[nH]c4c(c3n2)CCCC4)cc1 [Compound 1, 2-Phenyl-6,7,8,9-tetrahydro-5H-indolo[3,2-d]-pyrimidine] | 0.1
COc1ccc(-c2ncc3[nH]c4c(c3n2)CCC4)cc1 [Compound 9, 2-(4-Methoxyphenyl)-cyclopent(g)-5H-pyrrolo[3,2-d]-pyrimidine] | 0.018
c1ccc(-c2ncc3[nH]c4c(c3n2)CC2(CC4)OCCO2)cc1 [Compound 12, 2'-Phenyl-5',6',7',9'-tetrahydro-spiro[(1,3)dioxolane-2,8'-indolo[3,2-d]-pyrimidine]] | 0.025
COc1ccc(-c2ncc3[nH]c4c(c3n2)CC2(CCCO2)CC4)cc1 (centres unmarked) [Compound 15, 2-(4-Methoxyphenyl)-4,5,5',6',7',9'-hexahydro-spiro[furan-2,8'(3H)-indolo[3,2-d]-pyrimidine]] | 0.05
c1csc(-c2ncc3[nH]c4c(c3n2)CCCC4)c1 [Compound 10, 2-(2-Thienyl)-6,7,8,9-tetrahydro-5H-indolo[3,2-d]-pyrimidine] | 0.009
COc1ccc(-c2ncc3[nH]c4c(c3n2)CCCC4)cc1 [Compound 7, 2-(4-Methoxyphenyl)-6,7,8,9-tetrahydro-5H-indolo[3,2-d]-pyrimidine] | 0.039
c1ccc(COC2CCc3[nH]c4cnc(-c5ccccc5)nc4c3C2)cc1 (centres unmarked) [Compound 5, 2-Phenyl-8-benzyloxy-6,7,8,9-tetrahydro-5H-indolo[3,2-d]-pyrimidine] | 0.1
c1ccc(-c2ncc3[nH]c4c(c3n2)CCC4)cc1 [Compound 2, 2-Phenyl-cyclopent(g)-5H-pyrrolo[3,2-d]-pyrimidine] | 0.11
c1ccc(-c2ncc3[nH]c4c(c3n2)CCCCC4)cc1 [Compound 3, 2-Phenyl-cyclohept(g)-pyrrolo[3,2-d]-5H-pyrimidine] | 1
c1ccc(-c2ncc3[nH]c4c(c3n2)COCC4)cc1 [Compound 26, 2-Phenyl-5,6,7,9-tetrahydro-5H-pyrano[4,3-b]pyrimidino[4,5-d]-pyrrole] | 0.4
CN1C(=O)CCC12CCc1[nH]c3cnc(-c4ccccc4)nc3c1C2 (centres unmarked) [Compound 11, 1-Methyl-2-phenyl-5,6,7,9-tetrahydro-spiro[indolo[3,2-d]-pyrimidine-2',8-pyrrolidin-5'-one]] | 0.05
c1ccc(CN2CCc3[nH]c4cnc(-c5ccccc5)nc4c3C2)cc1 [Compound 32, 8-Benzyl-2-phenyl-5,6,7,9-tetrahydro-5H-pyrido[4,3-b]-pyrimidino[4,5-d]-pyrrole monohydrochloride] | 0.013

Tested on: benzodiazepine binding site
Assay: not given
Conditions: cited from earlier work

SMILES | blockade of enhancement of benzodiazepine binding by GABA agonists
CN1CCc2cc3c(cc2C1C1OC(=O)c2c1ccc1c2OCO1)OCO3 (single isomer, unassigned; (+)) [(+) bicuculline] | blocked
CN1CCc2cc3c(cc2C1C1OC(=O)c2c1ccc1c2OCO1)OCO3 (single isomer, unassigned; (-)) [(-) bicuculline] | much less active
